{"source": "patent US20210177952A1", "about": "“METHOD AND COMPOSITION FOR STIMULATING IMMUNE RESPONSE” (BeyondSpring Pharmaceuticals, Inc., priority 2018, published 2021)", "key": {"[1]": {"test_system": "CD4^+ T cells combined with CD14^+ dendritic cells", "assay": "Allogeneic mixed lymphocyte reaction (MLR), IL-2 and IFN-γ by ELISA", "assay_type": "cell-based, Human", "description": "Human peripheral CD14 positive monocytes were collected from a human donor and, subsequently, differentiated and matured into CD14^+ dendritic cells (DCs). Human CD4 positive T-cells were separately collected from another human donor. The collected CD4^+ T cells were combined with the CD14^+ DCs in a mixed lymphocyte reaction (MLR). In this Example, a tubulin binding agent was added, respectively, in the step of monocyte differentiation, in the step of dendritic cell maturation, and in the step of T-cell activation by combining the CD14^+ DCs with the CD4^+ T cells.\nISOLATION OF HUMAN CD4^+ T CELLS FROM ANOTHER DONOR'S PBMCs: PBMC cells were obtained from another human donor according to (1a)-(1d) above. CD4^+ T-cells were then isolated from these PBMCs according to steps (3a)-(3k) as follows: (3a) The number of the PBMC cells was determined. (3b) The cell suspension was centrifuged at 300×g for 10 min. The supernatant was then completely aspirated. (3c) The cell pellet was re-suspended in 40 μL of FACS buffer per 10^7 total cells. (3d) 10 μL of CD4^+ T Cell Biotin-Antibody Cocktail was added per 10^7 total cells. (3e) The mixture was well mixed and incubated for 5 min in refrigerator (at 2-8° C.). (3f) 30 μL of FACS buffer was added per 10^7 total cells, and 20 μL of CD4^+ T-Cell MicroBead Cocktail was added per 10^7 total cells. (3g) The mixture was well mixed and incubated for 10 min in refrigerator (at 2 to 8° C.). (3h) A column is placed in magnetic field of a suitable MACS Separator. (3i) The column is prepared by rinsing with 3 mL of buffer. (3j) The cell suspension was applied onto the column. The flow-through containing unlabeled cells, representing the enriched CD4^+ T cells, were collected. […]\nALLOGENEIC ACTIVATION OF T CELLS ASSESSED BY MLR ASSAY: Allogeneic Mixed Lymphocyte Reaction (MLR) assays were performed according to steps (4a)-(4d) as follows: (4a) The test article (e.g., plinabulin and other tubulin binding agents) were each diluted in RPMI 1640 medium according to one of Tables 7-9 and, subsequently, added at 50 μL/well in appropriate wells. […]"}, "[2]": {"details": "mice; cited from earlier work"}}}
{"compound": "CC(C)(C)c1[nH]cnc1/C=c1\\[nH]c(=O)/c(=C/c2ccccc2)[nH]c1=O", "note": "[Plinabulin, (3Z,6Z)-3-Benzylidene-6-{[5-(2-methyl-2-propanyl)-1H-imidazol-4-yl]methylene}-2,5-piperazinedione]", "values": [{"measurement": "IL2 secretion in MLR", "setting": "[1]; CD14^+ monocytes treated at 1 or 3 μM during DC differentiation", "value": "decrease in IL2 secretion"}, {"measurement": "IL2 secretion in MLR", "setting": "[1]; DCs treated at 1 or 3 μM during DC maturation", "value": "increase in IL2 secretion"}, {"measurement": "MLR induced IL-2 secretion", "setting": "[1]; treatment at ≥100 nM began when mature DCs were combined with CD4 T-cells, compared with nivolumab at 2 mg/ml", "value": "significant increase in MLR induced IL-2 secretion, greater than that of nivolumab"}, {"measurement": "plasma elimination half-life", "setting": "[2]", "value": "1.5 to 2", "unit": "h"}]}
